According to publication PMC3983201, “6-Methoxyflavanones as Bitter Taste Receptor Blockers for hTAS2R39” (PLoS ONE, 2014):

Molecular target: T1, hTAS2R16 (Homo sapiens, UniProt Q9NYV7)
T1 construct: expressed in transfected cells; host or cells: induced versus non-induced cells
T1 sequence (Q9NYV7 1-291): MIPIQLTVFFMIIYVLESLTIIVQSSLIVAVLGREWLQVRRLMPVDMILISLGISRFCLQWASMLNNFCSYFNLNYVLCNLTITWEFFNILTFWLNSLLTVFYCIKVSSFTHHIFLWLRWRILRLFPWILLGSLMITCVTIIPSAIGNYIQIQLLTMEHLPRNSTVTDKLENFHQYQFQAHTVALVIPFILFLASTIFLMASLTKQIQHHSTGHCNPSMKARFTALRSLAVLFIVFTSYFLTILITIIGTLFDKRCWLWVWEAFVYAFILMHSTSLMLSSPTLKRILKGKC
Assay: Calcium assay of hTAS2R16 activation/inhibition (salicin as agonist)
Type: cell-based
Conditions: for inhibition of salicin response on hTAS2R16: 10 mM salicin, simultaneous and stepwise addition
Method: Cells were seeded into poly-L-lysine-coated (Sigma-Aldrich) 96-well plates (black wall, clear bottom, Greiner bio-one, Frickenhausen, Germany) at a density of 7*10^3 cells in 100 μL/well and cultured for 24 h. Transcription of the receptors was induced by adding 0.25 μg/mL doxycycline (Sigma-Aldrich). Cells were induced for 24 h and then loaded with the calcium-sensitive fluorescent dye Fluo-4-AM (2.5 μM, Invitrogen), which was dissolved in Tyrode's buffer containing 5% (v/v) tetracycline-free FBS (Lonza). One hour after loading, cells were washed with Tyrode's buffer and taken up in Tyrode's buffer. Stock solutions of test compounds were prepared in DMSO and diluted to the appropriate concentration in Tyrode's buffer, not exceeding a DMSO concentration of 1% (v/v).
Receptor activation or inhibition was measured via intracellular Ca^2+ release in a FlexStation II 384 or FlexStation III (Molecular Devices Corporation, Sunnyvale, CA, USA) by measuring fluorescence (excitation 485 nm/emission 520 nm) for either 90 s or 240 s at 37°C. Two methods of compound administration were applied: simultaneous and stepwise addition of potential antagonist and agonist. The first 17 s before compound addition were used for baseline determination. For the simultaneous method, agonist and potential antagonist were pre-mixed, administered after 17 s, and fluorescence was measured for in total 90 s. For the stepwise method, after 17 s, the potential antagonist was added, fluorescence was measured until 120 s, and after 120 s the agonist was added and measured for another 120 s, in total 240 s. […] Each experiment was performed at least in duplicate in separate experiments (as indicated for each figure).
Screening for hTAS2R39 inhibition by flavanones was performed with simultaneous application of agonist (200 μM ECG) and putative antagonist (250 μM flavanone). Inhibition was indicated when [drawing 1] . In case of indicated inhibition, flavanones were applied at different concentrations, in order to test for dose-dependent inhibition, at the EC80 concentration of the agonist. Another agonist of hTAS2R39, denatonium benzoate, was used in inhibition experiments at 1.7 mM (EC80). hTAS2R14 inhibition was tested with 640 μM ECG or 70 μM genistein as agonists, representing their respective EC80 concentrations. To investigate the specificity of flavanones for inhibition of hTAS2R39 and hTAS2R14, another bitter taste receptor, hTAS2R16 (not known to be activated by flavonoids), was used in inhibition experiments ( File S3 ) towards its agonist salicin.
SUPPORTING INFORMATION to the article “6-Methoxyflavanones as Bitter Taste Receptor Blockers for hTAS2R39” by Roland, WSU; Gouka, RJ; Gruppen, H; Driesse, M; van Buren, L; Smit, G; Vincken, J-P File S3 Investigation of identified inhibitors on hTAS2R16.
To investigate whether the hTAS2R39 inhibitors 6,3’-dimethoxyflavanone (3), 4’- fluoro-6-methoxyflavanone (6), and 6-methoxyflavanone (11) were able to inhibit a bitter receptor not known for flavonoid activation, hTAS2R16 was selected for inhibition experiments. Measuring dose-response curves of the hTAS2R16 agonist […]
Figure S3. Inhibition of response of 10 mM salicin (---) on hTAS2R16 (induced (●), non-induced (○)) by 4’-fluoro-6-methoxyflavanone (6) after simultaneous addition (A) and stepwise addition (B), by 6,3’-dimethoxyflavanone (3) after simultaneous addition (C) and stepwise addition (D), and by 6-methoxyflavanone (11) after simultaneous addition (E) and stepwise addition (F). […]

Row | SMILES | inhibition of salicin response on hTAS2R16 | inhibitory effect of probenecid on hTAS2R16 assay (0.5 mM probenecid in Tyrode's buffer and dye loading buffer, agonist salicin)
1 | COc1ccc2c(c1)C(=O)CC(c1ccccc1)O2 (stereo not drawn) [Compound 11, 6-Methoxyflavanone] | no inhibition | –
2 | CCCN(CCC)S(=O)(=O)c1ccc(C(=O)O)cc1 [probenecid, p-(dipropylsulfamyl)benzoic acid, reference compound] | – | no inhibitory effect
3 | COc1ccc2c(c1)C(=O)CC(c1ccc(F)cc1)O2 (stereo not drawn) [Compound 6, 4′-Fluoro-6-methoxyflavanone] | no inhibition | –
